# Laboratory results from article PMC6713104, “New peptide derived antimalaria and antimicrobial agents bearing sulphonamide moiety” (Journal of Enzyme Inhibition and Medicinal Chemistry, 2019).
# Like-named read-outs stand apart in the source and are kept apart here.
# Key:
# P. falciparum strain W2 = assay: In vitro antimalarial assay; format: cell-based; conditions: Plasmodium falciparum, W2; P. falciparum, 48 h, >99% of parasites inhibited from developing to schizonts
# [1] = tested on: Plasmodium berghei infection in mice; assay: In vivo antimalaria test; conditions: Plasmodium berghei, P. berghei infected mice, oral
# Method: Experimental Design and Treatment of Mice. Methods of Peter et al.[30] and Kalra et al.[31] for antiplasmodial assay against Plasmodium berghei infection in mice with some modifications were employed. About eighty infected mice were randomly divided into five groups, each having […] mice. The inoculum was prepared from a donor mouse with rising parasitemia of 60.42%. After 7 days of infection, animals begin to receive treatment (100 and 200 mg/kg b wt.) of the synthesized compounds (7a–7n) for 12 days with constant check of the percentage of parasitemia after a 4-day interval. Artemisinin (100 and 200 mg/kg body weight.) was given to the other mice in group three as positive control, group four was not treated and group five was not infected. All the compounds and the drugs were given orally by using a standard intragastric tube. For all parasitemia determination, blood samples were collected from tail snip of each mouse and thin smears prepared and stained with 10% Giemsa solution. The uniform fields of each stained slide (for each mouse) were examined under microscope with an oil immersion objective of 100X magnification power and average percent of parasitemia was determined.
# To determine the in vivo activity, the compounds were tested against P. berghei NK(65 Strain) infection mice., the animals were obtained from Nigeria institute for Trypanosoma and onchocercarioses Research (NTIR) Vom, Plateau State Nigeria. The permission and approval for the use of animals in this experiment were granted by the Animal Ethics Committee, Federal College of Vetrenary Medical Laboratory, Vom, Plateau State. Method of Peter et al.[30], for antiplasmodial assay against P. berghei in mice with some modification were employed. Artemisimin was used as treated control of the experiments. The percentage inhibition of parasite multiplication was calculated comparing the treated group with untreated group by means of the following formula[39] [(A − B)/A] × 100; where A = parasitaemia in the untreated group and B = parasitemia in the test group. […] Most of the compounds were active against P. berghei after 7 days post-infection by reducing the parasiteamia by at least 40% when in a dose of 100 mg/kg (Table 5). The inhibition of parasitaemia increased on 12th day post infection for almost all the compounds. […] However in consideration of the compounds ability to inhibit parasitaemia to the control drug. […] These compounds should be considered for further studies because of its promising activities.
# B. subtilis = assay: Antimicrobial MIC, agar cup diffusion; format: cell-based; conditions: for MIC: Bacillus subtilis, B. subtilis, read-out: MIC (minimum inhibitory concentration)
# K. pneumoniae = assay: Antimicrobial MIC, agar cup diffusion; format: cell-based; conditions: Klebsiella pneumoniae, read-out: MIC (minimum inhibitory concentration)
# S. typhi = assay: Antimicrobial MIC, agar cup diffusion; format: cell-based; conditions: Salmonella enterica, read-out: MIC (minimum inhibitory concentration)
# E. coli = assay: Antimicrobial MIC, agar cup diffusion; format: cell-based; conditions: Escherichia coli, read-out: MIC (minimum inhibitory concentration)
# C. albicans = assay: Antimicrobial MIC, agar cup diffusion; format: cell-based; conditions: Candida albicans, read-out: MIC (minimum inhibitory concentration)
# A. niger = assay: Antimicrobial MIC, agar cup diffusion; format: cell-based; conditions: Aspergillus niger, read-out: MIC (minimum inhibitory concentration)
# Haematological analysis = format: in vivo, mice
# Description: (§1) Twenty-four hours before the injecting the compounds, the blood sample of five mice was taken and it was also taken after the last day of treatment, the animals were sacrificed by cervical dislocation and the blood samples were collected by heart puncture. The blood samples for haematological parameters (red blood cell (RBC) count, white blood cell (WBC) count, packed cell volume (PCV), and hemoglobin (HGB)) were collected into EDTA bottles and analyzed using an automated machine (Automated CBC Analyzer: Sysmex KX-21).
# The blood samples for haematological parameters (red blood cell (RBC) count, white blood cell (WBC) count, packed cell volume (PCV), and haemoglobin (HGB)) were collected into EDTA bottles and analyzed using an automated machine (Automated CBC Analyzer: Sysmex KX-21) (Table 8). From the analysis, even though there is a decrease in the value of RBC, PCV and HB, it is observed that there is no significant changes in the parameters that were analyzed for the control and the test compounds.
# [2] = Renal or kidney function test; format: in vivo; conditions: mice, 10 mg/kg
# Description: as §1, with “KX-21). Kidney function tests carried out with the blood of the rats fed with the sulfonamide derivatives were, creatinine and albunim. The method reported by Kaplan and Tengv[33] was used in the determination of creatinine.” for “KX-21).”
# Liver function tests = format: in vivo; parameters: Glucose: unit not given here; conditions: mice, 10 mg/kg
# Description: as §1, with “KX-21). The liver function tests carried out with the blood of the rats fed with the sulfonamide derivatives were aspartate aminotransperase (AST), alanine transaminase (ALT) and alkaline phosphatase (ALP). Standard laboratory procedure according to Reitman and Franke[32] was used for the determination of parameters.” for “KX-21).”
# [3] = 168 h, read-out: % inhibition 7 days post-treatment (100 mg/kg), day 7
# [4] = 168 h, read-out: % inhibition 7 days post-treatment (200 mg/kg), day 7
# [5] = 288 h, read-out: % inhibition 12 days post-treatment (100 mg/kg), day 12
# [6] = 288 h, read-out: % inhibition 12 days post-treatment (200 mg/kg), day 12
compound,measurement,setting,value
"C[C@@H]1CC[C@H]2[C@@H](C)C(=O)O[C@@H]3O[C@@]4(C)CC[C@@H]1[C@]32OO4 [Artemisinin, reference compound]",MIC,P. falciparum strain W2,0.72 µM
same,inhibition in vivo at 100 mg/kg,[1]; [3],75.7%
same,inhibition in vivo at 200 mg/kg,[1]; [4],78.9%
same,inhibition in vivo at 100 mg/kg,[1]; [5],86.2%
same,inhibition in vivo at 200 mg/kg,[1]; [6],82.3%
"O=C(O)c1cn(C2CC2)c2cc(N3CCNCC3)c(F)cc2c1=O [CIP, Ciprofloxacin, reference compound]",MIC,B. subtilis,184 µg/mL
same,MIC,K. pneumoniae,113 µg/mL
same,MIC,S. typhi,128 µg/mL
same,MIC,E. coli,131 µg/mL
"CC(NS(=O)(=O)c1ccccc1)C(=O)NCC(=O)Nc1cccc(Cl)c1 (centres unmarked) [Compound 7a, N-(2-((3-chlorophenyl)amino)-2-oxoethyl)-2-(phenylsulfonamido)propanamide]",MIC,B. subtilis,219 µg/mL
same,MIC,C. albicans,56.1 µg/mL
same,MIC,K. pneumoniae,251 µg/mL
same,MIC,P. falciparum strain W2,0.37 µM
same,inhibition in vivo at 100 mg/kg,[1]; [3],36.2%
same,inhibition in vivo at 200 mg/kg,[1]; [4],52.1%
same,inhibition in vivo at 100 mg/kg,[1]; [5],50%
same,inhibition in vivo at 200 mg/kg,[1]; [6],61.4%
same,MIC,S. typhi,199 µg/mL
same,MIC,A. niger,1580 µg/mL
same,MIC,E. coli,489 µg/mL
CC(NS(=O)(=O)c1ccccc1)C(=O)NCC(=O)Nc1cccc(F)c1 (centres unmarked) [Compound 7c],HB,Haematological analysis; After treatment,9.8 g/dL
same,PCV,Haematological analysis; After treatment,33%
same,RBC,Haematological analysis; After treatment,6.0 × 10^6 mm^3
same,WBC,Haematological analysis; After treatment,9.0 × 10^3 mm^3
same,HB,Haematological analysis; Before treatment,14.5 g/dL
same,PCV,Haematological analysis; Before treatment,38%
same,RBC,Haematological analysis; Before treatment,7.5 × 10^6 mm^3
same,WBC,Haematological analysis; Before treatment,10.3 × 10^3 mm^3
same,MIC,B. subtilis,3470 µg/mL
same,MIC,C. albicans,3470 µg/mL
same,Albumin,[2]; After,3.0 g/dL
same,Creatinine,[2]; After,0.3 mg/dL
same,Albumin,[2]; Before,3.5 g/dL
same,Creatinine,[2]; Before,0.3 mg/dL
same,MIC,K. pneumoniae,129 µg/mL
same,MIC,P. falciparum strain W2,0.72 µM
same,inhibition in vivo at 100 mg/kg,[1]; [3],48.3%
same,inhibition in vivo at 200 mg/kg,[1]; [4],40.2%
same,inhibition in vivo at 100 mg/kg,[1]; [5],51.3%
same,inhibition in vivo at 200 mg/kg,[1]; [6],48.7%
same,ALT,Liver function tests; After,23.5 µ/L
same,AST,Liver function tests; After,61.5 µ/L
same,Bilirubin,Liver function tests; After,0.5 mg/dL
same,Glucose,Liver function tests; After,5.0
same,T.P.,Liver function tests; After,5.5 g/dL
same,ALT,Liver function tests; Before,20.5 µ/L
same,AST,Liver function tests; Before,62.0 µ/L
same,Bilirubin,Liver function tests; Before,0.3 mg/dL
same,Glucose,Liver function tests; Before,5.6
same,T.P.,Liver function tests; Before,5.8 g/dL
same,MIC,S. typhi,2690 µg/mL
same,MIC,E. coli,372 µg/mL
same,melting point,,125 to 127 °C
"CC(NS(=O)(=O)c1ccccc1)C(=O)NCC(=O)Nc1ccccc1 (centres unmarked) [Compound 7f, N-(2-oxo-2-(phenylamino)ethyl)-2-(phenylsulfonamido)propanamide]",MIC,B. subtilis,155 µg/mL
same,activity against Bacillus compared with ciprofloxacin,B. subtilis; in words,greater activity against Bacillus than ciprofloxacin
same,MIC,C. albicans,214 µg/mL
same,MIC,K. pneumoniae,5010 µg/mL
same,MIC,P. falciparum strain W2,2.32 µM
same,inhibition in vivo at 100 mg/kg,[1]; [3],38.2%
same,inhibition in vivo at 200 mg/kg,[1]; [4],71%
same,inhibition in vivo at 100 mg/kg,[1]; [5],41.9%
same,inhibition in vivo at 200 mg/kg,[1]; [6],73.3%
same,MIC,S. typhi,4680 µg/mL
same,MIC,A. niger,105 µg/mL
same,MIC,E. coli,131 µg/mL
